Source: ChEMBL document CHEMBL1201861, “Genomics of Drug Sensitity in Cancer screening data, Wellcome Trust Sanger Institute”
pIC50: −log10 of the molar value.

How the values were obtained:
Experiment in all cases: cells
Type in all cases: functional, cell-based
Settings in all cases: Homo sapiens
[1] = system: SW1573;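 note: growth inhibition of SW1573 cells, read out with a cell viability assay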
Description: SANGER: Inhibition of human SW1573 cell growth in a cell viability assay.

[2] = system: CAL-54;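 note: growth inhibition of CAL-54 cells, read out by a viability measurement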
Description: SANGER: Inhibition of human CAL-54 cell growth in a cell viability assay.

[3] = system: NCI-H650;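 note: growth inhibition of NCI-H650 cells, read out by a viability assay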
Description: SANGER: Inhibition of human NCI-H650 cell growth in a cell viability assay.

[4] = system: MKN-28;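 note: cell viability assay read-out, IC50 reflects suppression of growth of human MKN-28 cells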
Description: SANGER: Inhibition of human MKN28 cell growth in a cell viability assay.

[5] = system: ME-180;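 note: cell viability assay measuring growth inhibition of ME-180 cells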
Description: SANGER: Inhibition of human ME-180 cell growth in a cell viability assay.

[6] = system: SBC-5;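 note: cell viability assay read-out, IC50 is the concentration that inhibits growth of the cells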
Description: SANGER: Inhibition of human SBC-5 cell growth in a cell viability assay.

[7] = system: COLO-680N;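 note: cell viability assay used to measure inhibition of COLO-680N cell growth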
Description: SANGER: Inhibition of human COLO-680N cell growth in a cell viability assay.

[8] = system: DOK;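 note: cell viability assay read-out, values reflect inhibition of cell growth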
Description: SANGER: Inhibition of human DOK cell growth in a cell viability assay.

[9] = system: NCI-H1651;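 note: Read-out is a cell viability assay, with IC50 expressing inhibition of NCI-H1651 cell growth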
Description: SANGER: Inhibition of human NCI-H1651 cell growth in a cell viability assay.

[10] = system: SiHa;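 note: Viability-based readout of growth inhibition in SiHa cells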
Description: SANGER: Inhibition of human SiHa cell growth in a cell viability assay.

[11] = system: HCT-15;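 note: cell viability readout, IC50 reflecting suppression of HCT-15 cell growth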
Description: SANGER: Inhibition of human HCT-15 cell growth in a cell viability assay.

[12] = system: OAW-42;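 note: growth inhibition of OAW-42 cells, read out with a cell viability assay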
Description: SANGER: Inhibition of human OAW-42 cell growth in a cell viability assay.

[13] = system: T47D;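 note: growth inhibition of human T47D cells, measured with a cell viability assay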
Description: SANGER: Inhibition of human T47D cell growth in a cell viability assay.

[14] = system: NCI-H1437;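 note: growth inhibition of human NCI-H1437 cells, read out by a cell viability assay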
Description: SANGER: Inhibition of human NCI-H1437 cell growth in a cell viability assay.

[15] = system: ACHN;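 note: cell viability read-out used to gauge how strongly growth of human ACHN cells is suppressed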
Description: SANGER: Inhibition of human ACHN cell growth in a cell viability assay.

[16] = system: ChaGo-K-1;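 note: growth inhibition of ChaGo-K-1 cells, read out with a cell viability assay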
Description: SANGER: Inhibition of human ChaGo-K-1 cell growth in a cell viability assay.

[17] = system: HCC70;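 note: cell viability assay measuring how strongly the compound suppresses proliferation of HCC70 cells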
Description: SANGER: Inhibition of human HCC70 cell growth in a cell viability assay.

[18] = system: SK-MEL-24;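 note: growth inhibition read out by a cell viability assay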
Description: SANGER: Inhibition of human SK-MEL-24 cell growth in a cell viability assay.

[19] = system: EFO-21;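 note: growth inhibition of EFO-21 cells measured with a viability assay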
Description: SANGER: Inhibition of human EFO-21 cell growth in a cell viability assay.

[20] = system: JEG-3;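 note: growth inhibition of human JEG-3 cells, read out with a cell viability assay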
Description: SANGER: Inhibition of human JEG-3 cell growth in a cell viability assay.

[21] = system: MDA-MB-453
Description: SANGER: Inhibition of human MDA-MB-453 cell growth in a cell viability assay.

[22] = system: LCLC-97TM1;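 note: cell viability assay measuring growth inhibition of human LCLC-97TM1 cells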
Description: SANGER: Inhibition of human LCLC-97TM1 cell growth in a cell viability assay.

[23] = system: NCI-H810;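 note: IC50 reflects inhibition of cancer cell line growth, read out with a cell viability assay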
Description: SANGER: Inhibition of human NCI-H810 cell growth in a cell viability assay.

[24] = system: Ca9-22;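 note: growth inhibition of Ca9-22 cells, read out with a cell viability assay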
Description: SANGER: Inhibition of human Ca9-22 cell growth in a cell viability assay.

[25] = system: 786-0
Description: SANGER: Inhibition of human 786-0 cell growth in a cell viability assay.

[26] = system: OAW-28;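 note: growth inhibition of OAW-28 cells, read out with a cell viability assay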
Description: SANGER: Inhibition of human OAW-28 cell growth in a cell viability assay.

[27] = system: DBTRG-05MG;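 note: cell viability assay measuring growth inhibition of human DBTRG-05MG cells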
Description: SANGER: Inhibition of human DBTRG-05MG cell growth in a cell viability assay.

[28] = system: NCI-H2122;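 note: growth inhibition of the cells, read out with a cell viability assay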
Description: SANGER: Inhibition of human NCI-H2122 cell growth in a cell viability assay.

[29] = system: RO82-W-1;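 note: growth inhibition of human RO82-W-1 cells, measured with a cell viability assay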
Description: SANGER: Inhibition of human RO82-W-1 cell growth in a cell viability assay.

[30] = system: NCI-H2347;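 note: growth inhibition of the cell line, read out with a cell viability assay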
Description: SANGER: Inhibition of human NCI-H2347 cell growth in a cell viability assay.

[31] = system: COLO-679
Description: SANGER: Inhibition of human COLO-679 cell growth in a cell viability assay.

[32] = system: NCI-H1563;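 note: growth inhibition of human NCI-H1563 cells, read out with a cell viability assay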
Description: SANGER: Inhibition of human NCI-H1563 cell growth in a cell viability assay.

[33] = system: SW948;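 note: growth inhibition of SW948 cells, read out with a cell viability assay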
Description: SANGER: Inhibition of human SW948 cell growth in a cell viability assay.

[34] = system: CaR-1;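 note: growth inhibition of human CaR-1 cancer cells, read out with a cell viability assay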
Description: SANGER: Inhibition of human CaR-1 cell growth in a cell viability assay.

[35] = system: HCC 2998;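 note: growth inhibition of human HCC2998 cells, measured with a cell viability read-out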
Description: SANGER: Inhibition of human HCC2998 cell growth in a cell viability assay.

[36] = system: MC-IXC;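 note: growth inhibition of MC-IXC cells, read out with a cell viability assay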
Description: SANGER: Inhibition of human MC-IXC cell growth in a cell viability assay.

[37] = system: HuO-3N1;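 note: cell viability readout used to measure how strongly compounds suppress proliferation of human HuO-3N1 cells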
Description: SANGER: Inhibition of human HuO-3N1 cell growth in a cell viability assay.

[38] = system: UACC-62;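 note: growth inhibition of human UACC-62 cells, read out by a cell viability assay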
Description: SANGER: Inhibition of human UACC-62 cell growth in a cell viability assay.

[39] = system: D-542MG
Description: SANGER: Inhibition of human D-542MG cell growth in a cell viability assay.

[40] = system: SK-N-AS;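 note: growth inhibition of human SK-N-AS cells, measured with a cell viability assay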
Description: SANGER: Inhibition of human SK-N-AS cell growth in a cell viability assay.

[41] = system: MHH-ES-1;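 note: cell growth inhibition measured by a cell viability assay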
Description: SANGER: Inhibition of human MHH-ES-1 cell growth in a cell viability assay.

[42] = system: PC-3;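 note: cell viability assay measuring growth inhibition of PC-3 cells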
Description: SANGER: Inhibition of human PC-3 cell growth in a cell viability assay.

[43] = system: KP-4;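 note: human KP-4 cells, with growth inhibition read out through a cell viability assay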
Description: SANGER: Inhibition of human KP-4 cell growth in a cell viability assay.

[44] = system: HMV-2 cell line;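 note: growth inhibition of HMV-II cells, read out with a cell viability assay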
Description: SANGER: Inhibition of human HMV-II cell growth in a cell viability assay.

[45] = system: Huh-7;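 note: HuH-7 cell growth inhibition, read out with a cell viability assay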
Description: SANGER: Inhibition of human HuH-7 cell growth in a cell viability assay.

[46] = system: Capan-2;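 note: Capan-2 cell growth inhibition, read out with a viability assay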
Description: SANGER: Inhibition of human Capan-2 cell growth in a cell viability assay.

[47] = system: NCI-H28;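 note: growth inhibition of human NCI-H28 cells, read out as cell viability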
Description: SANGER: Inhibition of human NCI-H28 cell growth in a cell viability assay.

[48] = system: SW1783;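 note: cell growth inhibition measured with a viability assay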
Description: SANGER: Inhibition of human SW1783 cell growth in a cell viability assay.

[49] = system: HCT-116
Description: SANGER: Inhibition of human HCT-116 cell growth in a cell viability assay.

[50] = system: CAL-85-1;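 note: growth inhibition of human CAL-85-1 cells, read out with a cell viability assay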
Description: SANGER: Inhibition of human CAL-85-1 cell growth in a cell viability assay.

Cn1cc(/C=C2\C(=O)Nc3cccnc32)c2ccccc21
pIC50 [1]: < 5.70 | pIC50 [2]: < 5.70 | pIC50 [3]: < 5.70 | pIC50 [4]: < 5.70 | pIC50 [5]: < 5.70 | pIC50 [6]: < 5.70 | pIC50 [7]: < 5.70 | pIC50 [8]: < 5.70 | pIC50 [9]: < 5.70 | pIC50 [10]: < 5.70 | pIC50 [11]: < 5.70 | pIC50 [12]: < 5.70 | pIC50 [13]: < 5.70 | pIC50 [14]: < 5.70 | pIC50 [15]: < 5.70 | pIC50 [16]: < 5.70 | pIC50 [17]: < 5.70 | pIC50 [18]: < 5.70 | pIC50 [19]: < 5.70 | pIC50 [20]: < 5.70 | pIC50 [21]: < 5.70 | pIC50 [22]: < 5.70 | pIC50 [23]: < 5.70 | pIC50 [24]: < 5.70 | pIC50 [25]: < 5.70 | pIC50 [26]: < 5.70 | pIC50 [27]: < 5.70 | pIC50 [28]: < 5.70 | pIC50 [29]: < 5.70 | pIC50 [30]: < 5.70 | pIC50 [31]: < 5.70 | pIC50 [32]: < 5.70 | pIC50 [33]: < 5.70 | pIC50 [34]: < 5.70 | pIC50 [35]: < 5.70 | pIC50 [36]: < 5.70 | pIC50 [37]: < 5.70 | pIC50 [38]: < 5.70 | pIC50 [39]: < 5.70 | pIC50 [40]: < 5.70 | pIC50 [41]: < 5.70 | pIC50 [42]: < 5.70 | pIC50 [43]: < 5.70 | pIC50 [44]: < 5.70 | pIC50 [45]: < 5.70 | pIC50 [46]: < 5.70 | pIC50 [47]: < 5.70 | pIC50 [48]: < 5.70 | pIC50 [49]: < 5.70 | pIC50 [50]: < 5.70

NC(=O)c1ncn([C@@H]2O[C@H](COP(=O)(O)O)[C@@H](O)[C@H]2O)c1N
pIC50 [1]: < 2.70 | pIC50 [2]: < 2.70 | pIC50 [3]: < 2.70 | pIC50 [4]: < 2.70 | pIC50 [5]: 3.38 | pIC50 [6]: 2.83 | pIC50 [7]: < 2.70 | pIC50 [8]: 3.18 | pIC50 [9]: < 2.70 | pIC50 [10]: < 2.70 | pIC50 [11]: 2.72 | pIC50 [12]: < 2.70 | pIC50 [13]: 3.38 | pIC50 [14]: 3.22 | pIC50 [15]: 2.92 | pIC50 [16]: 2.86 | pIC50 [17]: 2.90 | pIC50 [18]: < 2.70 | pIC50 [19]: < 2.70 | pIC50 [20]: 2.84 | pIC50 [21]: < 2.70 | pIC50 [22]: 3.04 | pIC50 [23]: < 2.70 | pIC50 [24]: 2.90 | pIC50 [25]: 2.97 | pIC50 [27]: 2.89 | pIC50 [28]: 3.30 | pIC50 [29]: < 2.70 | pIC50 [30]: < 2.70 | pIC50 [33]: < 2.70 | pIC50 [34]: 2.78 | pIC50 [35]: < 2.70 | pIC50 [36]: 2.75 | pIC50 [37]: 4.05 | pIC50 [38]: < 2.70 | pIC50 [40]: < 2.70 | pIC50 [41]: 2.82 | pIC50 [42]: 3.46 | pIC50 [43]: < 2.70 | pIC50 [44]: < 2.70 | pIC50 [45]: < 2.70 | pIC50 [46]: < 2.70 | pIC50 [47]: 2.98 | pIC50 [48]: < 2.70 | pIC50 [49]: 3.37

COc1cc(Nc2c(C#N)cnc3cc(OCCCN4CCN(C)CC4)c(OC)cc23)c(Cl)cc1Cl [BOSUTINIB]
pIC50 [1]: < 5.70 | pIC50 [2]: 5.78 | pIC50 [3]: < 5.70 | pIC50 [4]: < 5.70 | pIC50 [5]: < 5.70 | pIC50 [6]: < 5.70 | pIC50 [7]: < 5.70 | pIC50 [8]: 6.42 | pIC50 [9]: < 5.70 | pIC50 [10]: < 5.70 | pIC50 [11]: < 5.70 | pIC50 [12]: < 5.70 | pIC50 [13]: < 5.70 | pIC50 [14]: < 5.70 | pIC50 [15]: 6.27 | pIC50 [16]: < 5.70 | pIC50 [17]: < 5.70 | pIC50 [18]: < 5.70 | pIC50 [19]: < 5.70 | pIC50 [20]: < 5.70 | pIC50 [21]: < 5.70 | pIC50 [22]: < 5.70 | pIC50 [23]: < 5.70 | pIC50 [24]: 5.81 | pIC50 [25]: < 5.70 | pIC50 [26]: < 5.70 | pIC50 [27]: < 5.70 | pIC50 [28]: < 5.70 | pIC50 [29]: < 5.70 | pIC50 [30]: < 5.70 | pIC50 [31]: < 5.70 | pIC50 [32]: < 5.70 | pIC50 [33]: < 5.70 | pIC50 [34]: < 5.70 | pIC50 [35]: < 5.70 | pIC50 [36]: < 5.70 | pIC50 [37]: < 5.70 | pIC50 [38]: < 5.70 | pIC50 [39]: < 5.70 | pIC50 [40]: < 5.70 | pIC50 [41]: < 5.70 | pIC50 [42]: < 5.70 | pIC50 [43]: < 5.70 | pIC50 [44]: < 5.70 | pIC50 [45]: < 5.70 | pIC50 [46]: < 5.70 | pIC50 [47]: < 5.70 | pIC50 [48]: < 5.70 | pIC50 [49]: < 5.70 | pIC50 [50]: < 5.70

CC[C@@]1(O)C(=O)OCc2c1cc1n(c2=O)Cc2cc3ccccc3nc2-1 [CAMPTOTHECIN]
pIC50 [1]: 8.63 | pIC50 [2]: 8.32 | pIC50 [3]: 7.26 | pIC50 [4]: 7.29 | pIC50 [5]: 8.57 | pIC50 [6]: 7.49 | pIC50 [7]: 7.14 | pIC50 [8]: 7.72 | pIC50 [9]: 7.83 | pIC50 [10]: 7.06 | pIC50 [11]: < 7.00 | pIC50 [12]: 8.05 | pIC50 [13]: 7.87 | pIC50 [14]: 7.46 | pIC50 [15]: 8.18 | pIC50 [17]: 7.34 | pIC50 [18]: 7.41 | pIC50 [19]: 7.69 | pIC50 [20]: 7.88 | pIC50 [21]: 8.16 | pIC50 [22]: 8.09 | pIC50 [23]: 7.30 | pIC50 [24]: 8.66 | pIC50 [25]: 8.30 | pIC50 [26]: 8.14 | pIC50 [27]: 7.39 | pIC50 [28]: 7.89 | pIC50 [29]: 7.83 | pIC50 [31]: < 7.00 | pIC50 [34]: 8.19 | pIC50 [36]: 9.29 | pIC50 [37]: 7.90 | pIC50 [38]: 7.51 | pIC50 [40]: 8.27 | pIC50 [41]: 9.89 | pIC50 [42]: 8.01 | pIC50 [43]: 8.50 | pIC50 [44]: 8.05 | pIC50 [47]: 7.41 | pIC50 [48]: 7.61 | pIC50 [49]: 8.30 | pIC50 [50]: < 7.00
